{
  "source": "patent US20210199674A1",
  "about": "“TREATMENT METHOD, ANALYZING DEVICE, AND SURFACE TREATING LIQUID” (ARKRAY, Inc., priority 2019, published 2021)",
  "origin": "cited, not measured here",
  "settings": "for acid dissociation constant pKa1: first acidic proton dissociates; for acid dissociation constant pKa4: fourth acidic proton dissociates; for acid dissociation constant pKa2: second acidic proton dissociates; for acid dissociation constant pKa3: third acidic proton dissociates",
  "data": [
    {"smiles": "O=P(O)(O)OP(=O)(O)O", "note": "[pyrophosphoric acid]", "values": [
      {"measurement": "acid dissociation constant pKa1", "value": 0.9},
      {"measurement": "acid dissociation constant pKa4", "value": 9.4},
      {"measurement": "acid dissociation constant pKa2", "value": 2.0},
      {"measurement": "acid dissociation constant pKa3", "value": 6.6}
    ]},
    {"smiles": "O=P(O)(O)CP(=O)(O)O", "note": "[methylene diphosphonate]", "values": [
      {"measurement": "acid dissociation constant pKa1", "value": 1.43},
      {"measurement": "acid dissociation constant pKa4", "value": 10.96},
      {"measurement": "acid dissociation constant pKa2", "value": 3.05},
      {"measurement": "acid dissociation constant pKa3", "value": 7.35}
    ]}
  ]
}
